Our source for the IC50 and Activity values is ChEMBL document CHEMBL5034015, “Structure-Based Optimization of 3-Phenyl-N-(2-(3-phenylureido)ethyl)thiophene-2-sulfonamide Derivatives as Selective Mcl-1 Inhibitors” (J Med Chem, 2021).

One experiment concerns HeLa. Nature of the experiment: cells. The conditions noted are these: Homo sapiens, 48 h.
Experiment [1] has as its target Induced myeloid leukemia cell differentiation protein Mcl-1 (Homo sapiens, UniProt Q07820). Put plainly: Binding affinity to full length human MCL1 expressed in Escherichia coli BL21 (DE3) at up to 100 uM preincubated for 30 mins followed by 5-FAM-QEDIIIINIARHLAQVGDSMD-RSIPPG tracer addition and measured after 20 mins by fluorescence polarization assay. The following applies: dose microM <=100, time 50.0 min. (Polarisation of emitted light reports the rotation of a fluorescent probe.)

The test system of another experiment is RS4-11. Put plainly: cells. The conditions noted are these: Homo sapiens, RS4-11, 48 h.
The target in experiment [2] is Apoptosis regulator Bcl-2 (Homo sapiens, UniProt P10415). Nature of the experiment: Binding affinity to full length human Bcl-2 expressed in Escherichia coli BL21 (DE3) at up to 100 uM preincubated for 30 mins followed by 5-FAM-QEDIIIINIARHLAQVGDSMD-RSIPPG tracer addition and measured after 20 mins by fluorescence polarization assay. The following applies: dose microM <=100, time 50.0 min.
Chain of Apoptosis regulator Bcl-2 (P10415 whole entry): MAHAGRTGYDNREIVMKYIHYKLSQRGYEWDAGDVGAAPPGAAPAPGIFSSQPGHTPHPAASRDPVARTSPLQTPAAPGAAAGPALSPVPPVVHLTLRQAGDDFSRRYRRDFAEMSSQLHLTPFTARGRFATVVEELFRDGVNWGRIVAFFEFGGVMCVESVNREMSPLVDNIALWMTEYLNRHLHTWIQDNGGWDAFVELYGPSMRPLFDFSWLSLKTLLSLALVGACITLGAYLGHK

The target in a further experiment is Bcl-2-like protein 1 (Homo sapiens, UniProt Q07817). Nature of the experiment: Binding affinity to full length human Bcl-xl expressed in Escherichia coli BL21 (DE3) at up to 100 uM preincubated for 30 mins followed by 5-FAM-QEDIIIINIARHLAQVGDSMD-RSIPPG tracer addition and measured after 20 mins by fluorescence polarization assay. The conditions noted are these: dose microM <=100, time 50.0 min.
Chain of Bcl-2-like protein 1 (Q07817 whole entry): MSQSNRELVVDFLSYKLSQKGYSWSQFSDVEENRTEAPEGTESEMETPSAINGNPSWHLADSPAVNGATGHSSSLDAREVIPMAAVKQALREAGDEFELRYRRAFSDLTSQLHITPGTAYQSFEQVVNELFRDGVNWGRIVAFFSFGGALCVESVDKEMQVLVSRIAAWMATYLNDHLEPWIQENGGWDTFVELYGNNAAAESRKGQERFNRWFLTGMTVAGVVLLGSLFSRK

A further experiment has as its system HEK-293T. Nature of the experiment: Cytotoxicity against HEK293T cells assessed as reduction in cell viability incubated for 48 hrs by CCK8 assay. The conditions noted are these: Homo sapiens.
For a further experiment, the system named is HL-60. Nature of the experiment: cells. The conditions noted are these: Homo sapiens, HL-60, 48 h.

Calls of active or inactive are those of the source. Bounds are passed on as bounds.

Chain of Induced myeloid leukemia cell differentiation protein Mcl-1 (Q07820 whole entry): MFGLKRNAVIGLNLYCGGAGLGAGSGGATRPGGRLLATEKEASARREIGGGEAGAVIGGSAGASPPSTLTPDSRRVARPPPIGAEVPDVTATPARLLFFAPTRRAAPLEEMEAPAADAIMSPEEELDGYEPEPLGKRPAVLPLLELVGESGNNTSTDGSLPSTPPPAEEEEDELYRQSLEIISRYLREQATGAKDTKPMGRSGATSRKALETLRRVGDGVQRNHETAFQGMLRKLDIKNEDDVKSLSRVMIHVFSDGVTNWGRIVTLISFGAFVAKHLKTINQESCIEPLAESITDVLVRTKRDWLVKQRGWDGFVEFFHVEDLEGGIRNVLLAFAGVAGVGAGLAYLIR
Description for HL-60: Cytotoxicity against human HL-60 cells assessed as inhibition of cell growth incubated for 48 hrs by CCK8 assay
Description for HeLa: Cytotoxicity against human HeLa cells assessed as inhibition of cell growth incubated for 48 hrs by CCK8 assay
Description for RS4-11: Cytotoxicity against human RS4-11 cells assessed as inhibition of cell growth incubated for 48 hrs by CCK8 assay

What is called IC50 is the concentration that inhibits the measured activity by half. As to `COc1ccc(Oc2ccc(C(C)C)cc2-c2ccsc2S(=O)(=O)NCCNC(=O)Nc2cc(C(F)(F)F)cc(C(F)(F)F)c2)cc1OC`, the half-inhibitory concentration (IC50) was determined as 11.6 µM with HeLa, 11.7 µM in the experiment with RS4-11, 12.1 µM in the experiment on HEK-293T and 7.4 µM in the experiment on HL-60. Also, the outcome (in experiment [1]; in experiment [2]; on Bcl-2-like protein 1) was inactive.

Regarding `O=C(NCCNS(=O)(=O)c1ccc(-c2ccccc2OCc2cccc(O)c2)s1)Nc1cc(Cl)cc(Cl)c1`, the IC50 in the experiment on HeLa was more than 50 µM; with RS4-11, more than 50 µM; in the experiment on HEK-293T, more than 20 µM; in the experiment with HL-60, 2.8 µM. Further, the result (in experiment [1]; in experiment [2]; at Bcl-2-like protein 1) was inactive.

`COc1ccc(NC(=O)NCCNS(=O)(=O)c2ccc(-c3ccccc3OCc3cccc(O)c3)s2)cc1`: the IC50 is more than 20 µM in the experiment on HeLa, 9.4 µM in the experiment on RS4-11, more than 20 µM in the experiment on HEK-293T and more than 20 µM in the experiment with HL-60. The outcome (in experiment [1]; in experiment [2]; on Bcl-2-like protein 1) was inactive.

Take `O=[N+]([O-])c1ccc(NC(=S)NCCNS(=O)(=O)c2ccc(-c3ccccc3O[C@H]3CC[C@@H](O)CC3)s2)cc1`: the half-inhibitory concentration (IC50) is more than 20 µM in the experiment with HeLa, 9.4 µM in the experiment with RS4-11, 20 µM with HEK-293T and more than 50 µM in the experiment on HL-60. The result (in experiment [1]; in experiment [2]; on Bcl-2-like protein 1) was inactive.

With `CC(C)c1ccc(Oc2ccc(O)c(O)c2)c(-c2ccsc2S(=O)(=O)NCCNC(=S)Nc2ccc([N+](=O)[O-])cc2)c1`, the half-inhibitory concentration (IC50) in the experiment on HeLa is more than 20 µM; in the experiment on RS4-11, 5.1 µM; in the experiment on HEK-293T, 16.3 µM; in the experiment on HL-60 it was 8.8 µM. Moreover, the outcome (in experiment [1]; in experiment [2]; on Bcl-2-like protein 1) was inactive.

Regarding `O=C(NCCNS(=O)(=O)c1ccc(-c2ccccc2OCc2cccc(O)c2)s1)Nc1cc(C(F)(F)F)cc(C(F)(F)F)c1`, the half-inhibitory concentration (IC50) in the experiment on HeLa is 17.3 µM; with RS4-11, 3 µM; with HEK-293T, more than 20 µM; in the experiment on HL-60, 4 µM. For the same molecule, the result (in experiment [1]; in experiment [2]; on Bcl-2-like protein 1) was inactive.

`COc1ccc(NC(=S)NCCNS(=O)(=O)c2sccc2-c2ccc(C)cc2Oc2ccc(O)c(O)c2)cc1`: the half-inhibitory concentration (IC50) in the experiment with HeLa was more than 20 µM; in the experiment on RS4-11, 8.3 µM; in the experiment on HEK-293T, more than 20 µM; in the experiment on HL-60, 4.1 µM. Also, the outcome (in experiment [1]; in experiment [2]; at Bcl-2-like protein 1) was inactive.

For `O=C(NCCNS(=O)(=O)c1ccc(-c2ccccc2O[C@H]2CC[C@H](O)CC2)s1)Nc1cc(Cl)cc(Cl)c1`, the IC50 with HeLa was more than 20 µM; with RS4-11 it was 14.1 µM; with HEK-293T it was more than 50 µM; with HL-60, more than 20 µM. In addition, the result (in experiment [1]; in experiment [2]; at Bcl-2-like protein 1) was inactive.

`O=S(=O)(NCCNC(=S)Nc1cc(C(F)(F)F)cc(C(F)(F)F)c1)c1ccc(-c2ccccc2OCc2cccc(O)c2)s1`: the IC50 in the experiment on HeLa was 14.9 µM; with RS4-11 it was 12 µM; in the experiment with HEK-293T, more than 20 µM; with HL-60, more than 50 µM. The result (in experiment [1]; in experiment [2]; on Bcl-2-like protein 1) was inactive.

On to `O=C(NCCNS(=O)(=O)c1ccc(-c2ccccc2O[C@H]2CC[C@@H](O)CC2)s1)Nc1ccc([N+](=O)[O-])cc1`, for which the half-maximal inhibitory concentration (IC50) in the experiment with HeLa is more than 20 µM; in the experiment on RS4-11 it was 12.4 µM; in the experiment on HEK-293T, 8.6 µM; in the experiment with HL-60, more than 20 µM. The outcome (in experiment [1]; in experiment [2]; on Bcl-2-like protein 1) was inactive.

On to `O=S(=O)(NCCNC(=S)Nc1cccc(Cl)c1)c1ccc(-c2ccccc2OCc2ccccc2)s1`, for which the IC50 in the experiment with HeLa was 8.4 µM; in the experiment on RS4-11 it was more than 50 µM; in the experiment on HEK-293T, 10.2 µM; in the experiment with HL-60, more than 50 µM. Also, the outcome (in experiment [1]; in experiment [2]; at Bcl-2-like protein 1) was inactive.

Turning to `O=S(=O)(NCCNC(=S)Nc1cc(C(F)(F)F)cc(C(F)(F)F)c1)c1ccc(-c2ccccc2OCc2ccccc2)s1`, the IC50 in the experiment with HeLa was 4.7 µM; in the experiment with RS4-11, more than 50 µM; in the experiment with HEK-293T, 8.5 µM; in the experiment with HL-60, 2.1 µM. For the same molecule, the result (in experiment [1]; in experiment [2]; at Bcl-2-like protein 1) was inactive.

As to `O=[N+]([O-])c1ccc(NC(=S)NCCNS(=O)(=O)c2ccc(-c3ccccc3O[C@H]3CC[C@H](O)CC3)s2)cc1`, the concentration for half-maximal inhibition (IC50) in the experiment with HeLa worked out at 5.4 µM; with RS4-11 it was 1.5 µM; with HEK-293T, 10.5 µM; in the experiment on HL-60, 11.6 µM. Moreover, the result (in experiment [1]; in experiment [2]; at Bcl-2-like protein 1) was inactive.

`COc1cccc(NC(=O)NCCNS(=O)(=O)c2ccc(-c3ccccc3Oc3ccc([N+](=O)[O-])c([N+](=O)[O-])c3)s2)c1`: the IC50 is more than 20 µM in the experiment with HeLa, 1.3 µM with RS4-11, 17.8 µM with HEK-293T and 6.7 µM with HL-60. The result (in experiment [1]; in experiment [2]; on Bcl-2-like protein 1) was inactive.

As to `COc1ccc(NC(=O)NCCNS(=O)(=O)c2sccc2-c2ccc(C)cc2Oc2ccc(O)c(O)c2)cc1`, the half-inhibitory concentration (IC50) in the experiment with HeLa is more than 20 µM; in the experiment on RS4-11, 8.2 µM; with HEK-293T, more than 20 µM; in the experiment on HL-60, 6.1 µM. For the same molecule, the result (in experiment [1]; in experiment [2]; on Bcl-2-like protein 1) was inactive.

Regarding `COc1ccc(NC(=O)NCCNS(=O)(=O)c2ccc(-c3ccccc3Oc3ccc([N+](=O)[O-])c([N+](=O)[O-])c3)s2)cc1`, the half-inhibitory concentration (IC50) in the experiment on HeLa was more than 20 µM; in the experiment with RS4-11, 1.4 µM; with HEK-293T, 18.5 µM; in the experiment on HL-60, 5.4 µM. The result (in experiment [1]; in experiment [2]; at Bcl-2-like protein 1) was inactive.

`Cc1cc(C)cc(NC(=O)NCCNS(=O)(=O)c2ccc(-c3ccccc3OCc3cccc(O)c3)s2)c1`: the IC50 in the experiment on HeLa was more than 20 µM; in the experiment on RS4-11 it was 5.8 µM; in the experiment on HEK-293T, more than 20 µM; with HL-60 it was more than 20 µM. Besides, the result (in experiment [1]; in experiment [2]; at Bcl-2-like protein 1) was inactive.

Consider `O=C(NCCNS(=O)(=O)c1ccc(-c2ccccc2Oc2ccc([N+](=O)[O-])c([N+](=O)[O-])c2)s1)Nc1ccc([N+](=O)[O-])cc1`, for which the IC50 was more than 20 µM with HeLa, 3 µM in the experiment with RS4-11, 16.6 µM with HEK-293T and 0.34 µM with HL-60. In addition, the result (in experiment [1]; in experiment [2]; at Bcl-2-like protein 1) was inactive.
